Consider 16 compounds from patent publication US6413935B1, “Induction of immune response against desired determinants” (priority 1993, dated 2002).

pIC50: −log10 of the molar value. Values joined by “and” are separate entries in the source; they are usually repeats but may differ in a detail not shown here. Equal values may be shown once. Read-outs that look alike come from different tables or passages of the source. Non-standard residues stand in square brackets, D forms with d. Residues, ends and D or L forms follow the SMILES beside them. Cha = N[C@@H](CC1CCCCC1)C(=O)O

One experiment concerns DR7. The following applies: read-out: PADRE Class II Binding Affinities DR7.
The next experiment has as its system DR5. The following applies: read-out: PADRE Class II Binding Affinities DR5.
For a further experiment, the system named is DQ3.1. The following applies: read-out: PADRE Class II Binding Affinities; Table VIII A.
The test system of another experiment is human PBMC T cell lines. It is filed as cell-based.
The target in the next experiment is DR2w2a (Homo sapiens, UniProt P01903+Q30154). In words: biochemical. The following applies: PADRE Class II Binding Affinities DR2w282, Table IX.
DR2w2a, sequence (P01903 26-254): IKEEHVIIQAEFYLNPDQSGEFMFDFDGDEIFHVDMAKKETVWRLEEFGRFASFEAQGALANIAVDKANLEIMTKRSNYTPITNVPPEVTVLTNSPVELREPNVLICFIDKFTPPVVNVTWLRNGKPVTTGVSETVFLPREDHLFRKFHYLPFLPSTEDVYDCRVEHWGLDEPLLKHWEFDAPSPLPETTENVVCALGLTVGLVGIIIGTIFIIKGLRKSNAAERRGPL
DR2w2a, sequence (Q30154 30-266): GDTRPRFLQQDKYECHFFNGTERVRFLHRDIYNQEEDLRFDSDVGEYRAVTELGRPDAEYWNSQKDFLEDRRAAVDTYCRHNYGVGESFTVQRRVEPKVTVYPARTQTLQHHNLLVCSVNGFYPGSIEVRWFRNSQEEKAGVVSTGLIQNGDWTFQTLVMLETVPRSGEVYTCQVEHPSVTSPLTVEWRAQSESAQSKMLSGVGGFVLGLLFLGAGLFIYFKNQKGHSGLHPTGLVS
Another experiment concerns the target DR1 (Homo sapiens, UniProt P01903+P01911, A100R/D57E/F55L/F60I/F76Y/I96L/L162R/M171V/P40L/Q125E/R42F/V115G/Y59C). The experiment in a line: biochemical. The following applies: PADRE Class II Binding Affinities DR1, Table IX.
Another experiment addresses DR4w4 (Homo sapiens, UniProt P01903+P01911, A100K/A169T/F76Y/I96L/K127E/L162R/M171V/N62H/P40V/Q125Y/R42H/S133A/S149N/S66Y/V115G/V209L/W38E). In words: biochemical. The following applies: PADRE Class II Binding Affinities DR4w4, Table IX.

Regarding `CC(C)[C@H](NC(=O)[C@@H](NC(=O)[C@H](C)NC(=O)[C@H](C)NC(=O)[C@H](C)NC(=O)[C@H](C)NC(=O)[C@H](CC1CCCCC1)NC(=O)[C@H](C)NC(=O)[C@@H](C)N)[C@@H](C)O)C(=O)N[C@@H](CCCCN)C(=O)N[C@@H](C)C(=O)N[C@@H](C)C(=O)N[C@H](C)C(N)=O` [Peptide 906.32], the pIC50 with DR7 was 7.24; in the experiment on DR5, 8.38; with DQ3.1, 7.59.
Consider `C[C@H](NC(=O)[C@H](C)NC(=O)[C@H](C)NC(=O)[C@H](CC1CCCCC1)NC(=O)[C@H](C)NC(=O)[C@@H](C)N)C(=O)N[C@@H](C)C(=O)N[C@H](C(=O)N[C@@H](Cc1ccccc1)C(=O)N[C@@H](CCCCN)C(=O)N[C@@H](C)C(=O)N[C@@H](C)C(=O)N[C@H](C)C(N)=O)[C@@H](C)O` [Peptide 906.33], for which the pIC50 is 7.37 in the experiment on DR7 (Table VIII A), 8.62 with DR5 (Table VIII A) and 7.87 in the experiment on DQ3.1.
Consider `CC[C@H](C)[C@H](NC(=O)[C@@H](NC(=O)[C@H](C)NC(=O)[C@H](C)NC(=O)[C@H](C)NC(=O)[C@H](C)NC(=O)[C@H](CC1CCCCC1)NC(=O)[C@H](C)NC(=O)[C@@H](C)N)[C@@H](C)O)C(=O)N[C@@H](CCCCN)C(=O)N[C@@H](C)C(=O)N[C@@H](C)C(=O)N[C@H](C)C(N)=O` [Peptide 906.34], for which the pIC50 with DR7 (Table VIII A) is 7.25; in the experiment with DR5 (Table VIII A) it was 8.51; in the experiment with DQ3.1, 7.52.
`CC(C)C[C@H](NC(=O)[C@@H](NC(=O)[C@H](C)NC(=O)[C@H](C)NC(=O)[C@H](C)NC(=O)[C@H](C)NC(=O)[C@H](CC1CCCCC1)NC(=O)[C@H](C)NC(=O)[C@@H](C)N)[C@@H](C)O)C(=O)N[C@@H](CCCNC(=N)N)C(=O)N[C@@H](C)C(=O)N[C@@H](C)C(=O)N[C@H](C)C(N)=O` [Peptide 906.39] (H-[dA]A[Cha]AAAATLRAA[dA]-NH2; N-terminus and C-terminus assumed): the pIC50 with DR7 was 7.06; in the experiment on DR5, 8.37; in the experiment on DQ3.1, 7.54.
Take `CC(C)C[C@H](NC(=O)[C@@H](NC(=O)[C@H](C)NC(=O)[C@H](C)NC(=O)[C@H](C)NC(=O)[C@H](C)NC(=O)[C@H](CC1CCCCC1)NC(=O)[C@H](C)NC(=O)[C@@H](C)N)[C@@H](C)O)C(=O)N[C@@H](CCCCN)C(=O)N[C@@H](CCCCN)C(=O)N[C@@H](C)C(=O)N[C@H](C)C(N)=O` [Peptide 906.40] (H-[dA]A[Cha]AAAATLKKA[dA]-NH2; N-terminus and C-terminus assumed): the pIC50 in the experiment with DR7 (Table VIII A) was 6.26; with DR5 (Table VIII A), 7.78; in the experiment with DQ3.1 it was 7.44.
Taken in the same sequence, the figures for `CC(C)C[C@H](NC(=O)[C@@H](NC(=O)[C@H](C)NC(=O)[C@H](C)NC(=O)[C@H](C)NC(=O)[C@H](C)NC(=O)[C@H](CC1CCCCC1)NC(=O)[C@H](C)NC(=O)[C@@H](C)N)[C@@H](C)O)C(=O)N[C@@H](CCCCN)C(=O)N[C@H](C(=O)N[C@@H](C)C(=O)N[C@H](C)C(N)=O)C(C)C` [Peptide 906.43] (H-[dA]A[Cha]AAAATLKVA[dA]-NH2; N-terminus and C-terminus assumed) were 7.31, 8.02 and 7.61.
Taken in the same sequence, the figures for `CC[C@H](C)[C@H](NC(=O)[C@H](CCCCN)NC(=O)[C@H](CC(C)C)NC(=O)[C@@H](NC(=O)[C@H](C)NC(=O)[C@H](C)NC(=O)[C@H](C)NC(=O)[C@H](C)NC(=O)[C@H](CC1CCCCC1)NC(=O)[C@H](C)NC(=O)[C@@H](C)N)[C@@H](C)O)C(=O)N[C@@H](C)C(=O)N[C@H](C)C(N)=O` [Peptide 906.45] (H-[dA]A[Cha]AAAATLKIA[dA]-NH2; N-terminus and C-terminus assumed) were 7.60, 7.55 and 7.25.
Taken in the same sequence, the figures for `CC(C)C[C@H](NC(=O)[C@@H](NC(=O)[C@H](C)NC(=O)[C@H](C)NC(=O)[C@H](C)NC(=O)[C@H](C)NC(=O)[C@H](CC1CCCCC1)NC(=O)[C@H](C)NC(=O)[C@@H](C)N)[C@@H](C)O)C(=O)N[C@@H](CCCCN)C(=O)N[C@@H](C)C(=O)N[C@@H](CCC(N)=O)C(=O)N[C@H](C)C(N)=O` [Peptide 906.48] (H-[dA]A[Cha]AAAATLKAQ[dA]-NH2; N-terminus and C-terminus assumed) were 7.02, 7.70 and 7.74.
`CC(C)C[C@H](NC(=O)[C@@H](NC(=O)[C@H](C)NC(=O)[C@H](C)NC(=O)[C@H](C)NC(=O)[C@H](C)NC(=O)[C@H](CC1CCCCC1)NC(=O)[C@H](C)NC(=O)[C@@H](C)N)[C@@H](C)O)C(=O)N[C@@H](CCCCN)C(=O)N[C@@H](C)C(=O)N[C@H](C(=O)N[C@H](C)C(N)=O)C(C)C` [Peptide 906.49] (H-[dA]A[Cha]AAAATLKAV[dA]-NH2; N-terminus and C-terminus assumed): the pIC50 was 7.55 in the experiment on DR7 (Table VIII A), 8.35 in the experiment on DR5 (Table VIII A) and 7.84 in the experiment with DQ3.1.
For `CC(C)C[C@H](NC(=O)[C@@H](NC(=O)[C@H](CCCCN)NC(=O)[C@H](C)NC(=O)[C@H](C)NC(=O)[C@@H](NC(=O)[C@H](CC1CCCCC1)NC(=O)[C@H](CCCCN)NC(=O)[C@@H](C)N)C(C)C)[C@@H](C)O)C(=O)N[C@@H](CCCCN)C(=O)N[C@@H](C)C(=O)N[C@@H](C)C(=O)N[C@H](C)C(N)=O` [Peptide 965.14], in the experiment on human PBMC T cell lines, the “Donors with significant (>10,000 cpm) T cell response / donors tested, second stimulation” value was 1/5 and the “Donors with significant (>10,000 cpm) T cell response / donors tested, third stimulation” value is 3/5. The pIC50 with DR5 (Table IX) is 7.46.
For `CC(C)C[C@H](NC(=O)[C@@H](NC(=O)[C@H](C)NC(=O)[C@H](C)NC(=O)[C@H](C)NC(=O)[C@@H](NC(=O)[C@H](CC1CCCCC1)NC(=O)[C@H](CCCCN)NC(=O)[C@@H](C)N)C(C)C)[C@@H](C)O)C(=O)N[C@@H](CCCCN)C(=O)N[C@@H](C)C(=O)N[C@@H](C)C(=O)N[C@H](C)C(N)=O` [Peptide 965.16], in the experiment with human PBMC T cell lines, the “Donors with significant (>10,000 cpm) T cell response / donors tested, second stimulation” value was 0/5 and the “Donors with significant (>10,000 cpm) T cell response / donors tested, third stimulation” value was 1/5.
At DR2w2a, `CSCC[C@H](NC(=O)[C@@H](NC(=O)[C@H](CC1CCCCC1)NC(=O)[C@H](CCCCN)NC(=O)[C@@H](C)NC(=O)[C@H](CO)NC(=O)[C@H](CO)NC(=O)[C@@H](N)CCCCN)C(C)C)C(=O)N[C@@H](C)C(=O)N[C@@H](C)C(=O)N[C@H](C(=O)N[C@@H](CC(C)C)C(=O)N[C@@H](CCCCN)C(=O)N[C@@H](C)C(=O)N[C@@H](C)C(=O)N[C@H](C)C(N)=O)[C@@H](C)O` [Peptide 965.19] gave a pIC50 of 7.63.
For `CC(C)C[C@H](NC(=O)[C@@H](NC(=O)[C@H](Cc1c[nH]c2ccccc12)NC(=O)[C@H](C)NC(=O)[C@H](CCCCN)NC(=O)[C@@H](NC(=O)[C@H](CC1CCCCC1)NC(=O)[C@H](CCCCN)NC(=O)[C@@H](C)N)C(C)C)[C@@H](C)O)C(=O)N[C@@H](CCCCN)C(=O)N[C@@H](C)C(=O)N[C@@H](C)C(=O)N[C@H](C)C(N)=O` [Peptide 965.021], the pIC50 on DR1 was 9.10 and 9.15; on DR2w2a, 8.24 and 8.05; in the experiment with DR7 (Table IX), 7.05; with DR7 (Table IX, listed as 965.022) it was 6.47; in the experiment with DR5 (Table IX), 8.39; in the experiment on DR5 (Table IX, listed as 965.022), 8.96.
`CC(C)C[C@H](NC(=O)[C@@H](NC(=O)[C@H](Cc1ccc(O)cc1)NC(=O)[C@H](C)NC(=O)[C@H](Cc1c[nH]c2ccccc12)NC(=O)[C@@H](NC(=O)[C@H](CC1CCCCC1)NC(=O)[C@H](CCCCN)NC(=O)[C@@H](C)N)C(C)C)[C@@H](C)O)C(=O)N[C@@H](CCCCN)C(=O)N[C@@H](C)C(=O)N[C@@H](C)C(=O)N[C@H](C)C(N)=O` [Peptide 965.041]: the pIC50 on DR1 is 9.30; at DR2w2a, 8.60; on DR4w4, 9.30; in the experiment with DR5 (Table IX), 8.33.
With `CC(C)C[C@H](NC(=O)[C@@H](NC(=O)[C@@H](NC(=O)[C@H](C)NC(=O)[C@H](Cc1c[nH]c2ccccc12)NC(=O)[C@@H](NC(=O)[C@H](CC1CCCCC1)NC(=O)[C@H](CCCCN)NC(=O)[C@@H](C)N)C(C)C)C(C)C)[C@@H](C)O)C(=O)N[C@@H](CCCCN)C(=O)N[C@@H](C)C(=O)N[C@@H](C)C(=O)N[C@H](C)C(N)=O` [Peptide 965.042], the values for the pIC50 at DR1, on DR2w2a and on DR4w4 were 9.70, 8.02 and 9.00, respectively.
Turning to `CC(C)C[C@H](NC(=O)[C@@H](NC(=O)[C@H](CC(N)=O)NC(=O)[C@H](C)NC(=O)[C@H](C)NC(=O)[C@@H](NC(=O)[C@H](CC1CCCCC1)NC(=O)[C@H](CCCCN)NC(=O)[C@@H](C)N)C(C)C)[C@@H](C)O)C(=O)N[C@@H](CCCCN)C(=O)N[C@@H](C)C(=O)N[C@@H](C)C(=O)N[C@H](C)C(N)=O` [Peptide 965.081], in the experiment on human PBMC T cell lines, the “Donors with significant (>10,000 cpm) T cell response / donors tested, second stimulation” value is 1/5 and the “Donors with significant (>10,000 cpm) T cell response / donors tested, third stimulation” value is given as 2/5. In addition, the pIC50 in the experiment on DR5 (Table IX, listed as 965.082) was 7.90.
